Test results reported in patent US7727952B2, “Methods for treating spinal and bulbar muscular atrophy using LHRH analogs” (priority 2002, dated 2010).
Entries after “also recorded” stand apart in the source; their conditions may differ.

Legend:
male AR-97Q mice = assay: Administration of Leuprorelin to male AR-97Q mice: symptoms (body weight, rotarod task, cage activity, survival rate, body size, foot prints); type: in vivo, mouse
Procedure: We analyzed rotarod task of mice by an Economex Rotarod (Colombus Instruments, USA) weekly during the light phase of the 12 h light/12 h dark cycle as described previously (Adachi et al., 2001). We performed three trials, and recorded the longest duration on the rod for every mouse. We stopped the timer when the mouse fell from the rod or after an arbitrary limit of 180 seconds. We measured cage activity while each mouse was in a transparent acrylic cage (16×30×14 cm). We used an AB system (Neuroscience, Japan) with an infrared ray sensor monitor to measure spontaneous motor activity. We automatically totaled and recorded all measurements for 24 hours per week at 10-min intervals. […] Leuprorelin was administrated as follows. 100 μg of Leuprorelin acetate was suspended in a solution containing D-mannitol, which was subcutaneously injected to the mice every two weeks from five weeks of age until the end of the analysis. To the control group, only suspension was administrated. […] That is to say, motor impairment assessed by rotarod and cage activity was far milder in the Leuprorelin-administrated male AR-97Q mice as compared with the control group, and motor dysfunction was hardly shown in the Leuprorelin-administrated group (FIGS. 5A, B, C and D).

[1] = Serum testosterone radioimmunoassay in Leuprorelin-administered male AR-97Q mice; type: in vivo, mouse; settings: #4-6, n=4
Procedure: Leuprorelin was administrated as follows. 100 μg of Leuprorelin acetate was suspended in a solution containing D-mannitol, which was subcutaneously injected to the mice every two weeks from five weeks of age until the end of the analysis. To the control group, only suspension was administrated. […] That is to say, motor impairment assessed by rotarod and cage activity was far milder in the Leuprorelin-administrated male AR-97Q mice as compared with the control group, and motor dysfunction was hardly shown in the Leuprorelin-administrated group (FIGS. 5A, B, C and D).

[2] = The Leuproride Study Group 1984; cited from earlier work
female AR-97Q mice = assay: Administration of testosterone to female AR-97Q mice: symptoms (body weight, rotarod task, cage activity, survival rate, body size, foot prints); type: in vivo, mouse
Procedure: We analyzed rotarod task of mice by an Economex Rotarod (Colombus Instruments, USA) weekly during the light phase of the 12 h light/12 h dark cycle as described previously (Adachi et al., 2001). We performed three trials, and recorded the longest duration on the rod for every mouse. We stopped the timer when the mouse fell from the rod or after an arbitrary limit of 180 seconds.
We measured cage activity while each mouse was in a transparent acrylic cage (16×30×14 cm). We used an AB system (Neuroscience, Japan) with an infrared ray sensor monitor to measure spontaneous motor activity. We automatically totaled and recorded all measurements for 24 hours per week at 10-min intervals.
Male AR-97Q mice and their normal littermates were castrated or sham-operated via the abdominal route under ketamine-xylazine anesthesia (50 mg/kg ketamine and 10 mg/kg xylazine, i.p.) at 4 weeks of age. […] The control mice were given the same amount of sesame oil.

[3] = Serum testosterone radioimmunoassay in testosterone-administered female AR-97Q mice; type: in vivo, mouse; settings: testosterone-administered female 97Q mice, control mice undetectable low level

CCNC(=O)[C@@H]1CCCN1C(=O)[C@H](CCCNC(=N)N)NC(=O)[C@H](CC(C)C)NC(=O)[C@@H](CC(C)C)NC(=O)[C@H](Cc1ccc(O)cc1)NC(=O)[C@H](CO)NC(=O)[C@H](Cc1c[nH]c2ccccc12)NC(=O)[C@H](Cc1c[nH]cn1)NC(=O)[C@@H]1CCC(=O)N1 [Leuprorelin]
rotarod task (male AR-97Q mice; FIG. 5B, #7-8, Leuprorelin-administered group vs control (vehicle) group, n=6): significant difference
cage activity (male AR-97Q mice; FIG. 5C, #7-8, Leuprorelin-administered group vs control (vehicle) group, n=6): significant difference
body size (male AR-97Q mice; FIG. 5E, #4-6, 12-week-old, control group showed severe muscular atrophy): normal
symptoms (male AR-97Q mice; male AR-97Q mice, 100 μg Leuprorelin acetate s.c. every two weeks from five weeks of age, vs control group (suspension only)): remarkable improvement
motor dysfunction (male AR-97Q mice; male AR-97Q mice, 100 μg s.c. every two weeks): hardly shown
motor impairment assessed by rotarod and cage activity (male AR-97Q mice; male AR-97Q mice, 100 μg s.c. every two weeks, compared with the control group): far milder
reduction in body size (male AR-97Q mice; male AR-97Q mice, FIG. 5E, #4-6, 12-week-old): remarkably improved
motor weakness (foot prints) (male AR-97Q mice; male AR-97Q mice, FIG. 5F, #4-6, 12-week-old): improved
serum testosterone value [1]: undetectable low level
effect of inhibiting the secretion of testosterone, relative to castration [2]: same level

CCCCCCC(=O)O[C@H]1CC[C@H]2[C@@H]3CCC4=CC(=O)CC[C@]4(C)[C@H]3CC[C@]12C [testosterone, testosterone enanthate]
body weight (female AR-97Q mice; FIG. 6A, #7-8, testosterone-administered group vs testosterone-administered normal mice or control (oil) group, p<0.0001): significant difference
rotarod task (female AR-97Q mice; FIG. 6B, #7-8, testosterone-administered group vs testosterone-administered normal mice or control (oil) group, p<0.0001): significant difference
cage activity (female AR-97Q mice; FIG. 6C, #2-6, testosterone-administered group vs testosterone-administered normal mice or control (oil) group, p<0.0001): significant difference
survival rate (female AR-97Q mice; FIG. 6D, #7-8, testosterone-administered group vs testosterone-administered normal mice or control (oil) group, p<0.0001): significant difference
symptoms, pathologic findings and nuclear localization of the mutant protein (female AR-97Q mice; female AR-97Q mice, 20 μg testosterone enanthate s.c. weekly from 4 weeks of age, vs sesame-oil control group): drastically exacerbated
weight loss (female AR-97Q mice; female AR-97Q mice, FIG. 6A, control group hardly showed weight loss): significant weight loss
life-span (female AR-97Q mice; female AR-97Q mice, FIG. 6D): affected
muscle atrophy and body size (female AR-97Q mice; female AR-97Q mice, FIG. 6E, #2-6, 14-week-old): marked muscle atrophy and reduction in body size; also recorded: severe muscular atrophy
foot print analysis (female AR-97Q mice; female AR-97Q mice, FIG. 6F, not detected in sesame oil-administered mice): exhibited motor weakness and dragged their hind legs
motor impairment assessed by rotarod and cage activity (female AR-97Q mice; female AR-97Q mice, compared with control mice, FIGS. 6B and C): significantly worsened
serum testosterone levels ([3]; line #2-6, n=3): 158.0 ± 70.7 ng/dL
serum testosterone levels ([3]; line #7-8, n=4): 305.3 ± 182.3 ng/dL
